Laboratory results from US8022072B2, “Azolylmethylidenehydrazine derivative and use thereof” (Kaken Pharmaceutical Co., Ltd., priority 2007, dated 2011).
Values after ≈ are worked out from the molar mass of the structure shown.

Columns and labels:
TNCB-induced dermatitis = experiment: 2,4,6-Trinitrochlorobenzene (TNCB)-induced dermatitis model, ear edema; assay type: in vivo, male BALB/c mouse; settings: test compound 1 w/v % (FK506 0.1 w/v %), 20 μL applied to auricle, 24 hours after induction
Procedure: (§1) The test compound was adjusted to 1 w/v % when in use with a solvent (acetone:olive oil=1:1, v/v)) and put to use. FK506 (control substance) was adjusted to 0.1 w/v % and used.
The fur on the abdomen of male BALB/c mouse was shaved with a hair clipper, and 100 μL of 7 w/v % TNCB sensitizing liquid (solvent was acetone:olive oil=4:1, v/v) was applied. Six days after the sensitization, the thickness of the right auricle was measured with a micrometer (pre-value). After the measurement, 10 μL of 1 w/v % TNCB challenge liquid (solvent was acetone:olive oil=1:9, v/v) was applied to the inside of the right auricle to induce ear edema. About 5 minutes after the application of the challenge liquid, 20 μL of the test compound was applied to the outside of the auricle.
After 24 hours from the induction of ear edema, the thickness of the right auricle was measured by a method similar to the pre-value (post-value). The difference between the post-value and the pre-value of ear edema by each test compound was determined, based on which the inhibition rate was calculated. The activity of each test compound was calculated with the ear edema inhibition rate of FK506 as 1.0 (ear edema inhibition rate of each test compound/ear edema inhibition rate of FK506).

OVA-induced dermatitis = experiment: Ovalbumin (OVA)-induced dermatitis model, ear edema; assay type: in vivo, male ICR mouse; design: key: ratio of compound's ear edema inhibition rate to FK506's (FK506 = 1.0); settings: test compound 1 w/v % (FK506 0.1 w/v %), 20 μL applied to auricle, 24 hours after induction
Procedure: as §1
Male ICR mouse was sensitized by the administration of 0.2 mL of OVA-hydroxide aluminum gel suspension to the abdominal cavity. After 14 days from the sensitization, the thickness of the right auricle was measured with a micrometer (pre-value). After the measurement, 20 μL of 0.5 μg/mL OVA challenge liquid (solvent was physiological saline) was subcutaneously administered to the inside of the auricle to induce ear edema. About 5 minutes after the administration of the challenge liquid, 20 μL of the test compound was applied to the outside of the auricle. After 24 hours from the induction of ear edema, the thickness of the right auricle was measured by a method similar to the pre-value (post-value). The difference between the post-value and the pre-value of ear edema by each test compound was determined, based on which the inhibition rate was calculated. The activity of each test compound was calculated with the ear edema inhibition rate of FK506 as 1.0 (ear edema inhibition rate of each test compound/ear edema inhibition rate of FK506).

[1] = test system: Trichophyton rubrum KD-101; experiment: Antifungal activity evaluation test, MIC, Trichophyton rubrum KD-101; assay type: cell-based; settings: KD101, 168 h, Sabouraud Dextrose Broth, 30° C., 7 days, visual, read-out: MIC T. rub. KD-101
Procedure: (§2) The minimum inhibitory concentration (MIC) for Trichophyton mentagrophytes, Trichophyton rubrum, and Malassezia furfur was measured according to the following procedure. • Test compound solution: A test compound was dissolved in dimethyl sulfoxide (DMSO) at a concentration of 5 mg/mL as a stock solution. […] Then, as a test medium, a fungal solution of Trichophyton species was 100-fold diluted with Sabouraud Dextrose Broth (Difco), and a fungal solution of Malassezia furfur IFO-0656 was 100-fold diluted with MU medium to give each inoculum (2×10^4 cells/mL). • Measurement of MIC of Trichophyton fungi: Sabouraud Dextrose Broth (Difco) was dispensed by 100 μL to a given well of a 96 well flat microplate. Then, a test compound solution (2 μL) was added, and the mixture was thoroughly mixed with a plate mixer. A fungal solution (100 μL) was inoculated and cultured at 30° C. for 7 days. The presence or absence of the cell growth was visually observed, and the minimum medicament concentration at which the cell growth was prevented was taken as MIC (μg/mL). • Measurement of MIC of Malassezia furfur: Since the urease activity of this fungus and the fungus growth rate are co-related, MIC was evaluated by the following method using urease activity as an index. MU medium was dispensed by 100 μL to a given well of a 96 well flat microplate. Then, a test compound solution (2 μL) was added, and the mixture was thoroughly mixed with a plate mixer. A fungal solution (100 μL) was inoculated and cultured at 30° C. The culture was stopped on day 4 or 5 of culture when the color tone of the MU medium changes from yellow to red in visual observation of the fungus growth in a well free of addition of a test substance. Then the plate was stirred until the fungus became uniform, and the urease activity was measured based on the measurement of absorbance at 550 nm using a plate reader.

[2] = test system: Trichophyton rubrum KD-107; experiment: Antifungal activity evaluation test, MIC, Trichophyton rubrum KD-107; assay type: cell-based; settings: KD107, 168 h, Sabouraud Dextrose Broth, 30° C., 7 days, visual, read-out: MIC T. rub. KD-107
Procedure: as §2

[3] = test system: Trichophyton mentagrophytes KD-04; experiment: Influence of keratin addition on anti-Trichophyton activity; assay type: cell-based; settings: Trichophyton mentagrophytes, KD04, 168 h, 30° C., 7 days
Procedure: The MIC increase rate by the addition of keratin to a medium was measured by the following procedure. • Test compound solution: A test compound was dissolved in dimethyl sulfoxide (DMSO) at a concentration of 5 mg/mL as a stock solution. Diluting this solution with DMSO, a 2-fold dilution series was prepared. • Test strain: Trichophyton mentagrophytes KD-04 was used. Preparation of Fungal Inoculum: the Above-Mentioned Strain was suspended in 0.05% Tween 80-containing physiological saline, and adjusted to a fungus concentration of 2×10^6 cells/mL using a counting chamber. […] The physiological saline was removed, and the mixture was further washed once with physiological saline (3 mL). The physiological saline was removed, and a test compound solution (10 μL) and Sabouraud Dextrose Broth (Difco) (500 μL) were added to keratin, and the mixture was sufficiently stirred. Then, inoculum (500 μL) of T. mentagrophytes KD-04 was added, and the mixture was cultured at 30° C. for 7 days. As a comparison control, an experiment similar to the above was performed under conditions free of keratin addition.

[4] = test system: Malassezia furfur IFO-0656; experiment: Antifungal activity evaluation test, MIC by urease activity, Malassezia furfur IFO-0656; assay type: cell-based; settings: IFO0656, 96 h, MU medium, 30° C., day 4 or 5, urease activity of 20% or below, read-out: MIC M. fur. IFO-0656
Procedure: as §2

[5] = test system: Trichophyton mentagrophytes KD-04; experiment: Antifungal activity evaluation test, MIC, Trichophyton mentagrophytes KD-04; assay type: cell-based; settings: KD04, 168 h, Sabouraud Dextrose Broth, 30° C., 7 days, visual, read-out: MIC T. men. KD-04
Procedure: as §2

[6] = test system: Trichophyton mentagrophytes SM-110; experiment: Antifungal activity evaluation test, MIC, Trichophyton mentagrophytes SM-110; assay type: cell-based; settings: SM110, 168 h, Sabouraud Dextrose Broth, 30° C., 7 days, visual, read-out: MIC T. men. SM-110
Procedure: as §2

[7] = T. mentagrophytes KD-04, free of keratin addition, read-out: MIC SDB alone
[8] = T. mentagrophytes KD-04, keratin 50 mg added, read-out: MIC SDB + keratin

SMILES	TNCB-induced dermatitis, with ear edema inhibition rate of FK506 as 1.0 (TNCB-induced dermatitis)	OVA-induced dermatitis, with ear edema inhibition rate of FK506 as 1.0 (OVA-induced dermatitis)	other results
CCCCCCc1ccccc1C(=NN(C)C)n1ccnc1 [Compound No. 5, N′-[1-(2-hexylphenyl)-1-imidazol-1-ylmethylidene]-N,N-dimethylhydrazine]	0.6	1.2	–
CCCCCOc1ccccc1C(=NN(C)C)n1ccnc1 [Compound No. 24, N′-[1-imidazol-1-yl-1-(2-pentyloxyphenyl)methylidene]-N,N-dimethylhydrazine]	0.5	0.9	–
CN(C)N=C(c1ccccc1OCc1ccc(F)cc1)n1ccnc1 [Compound No. 35, N′-[1-[2-(4-fluorobenzyloxy)phenyl]-1-imidazol-1-ylmethylidene]-N,N-dimethylhydrazine]	0.6	0.9	–
CN(C)N=C(c1ccccc1OCc1ccc(Cl)cc1)n1ccnc1 [Compound No. 38, N′-[1-[2-(4-chlorobenzyloxy)phenyl]-1-imidazol-1-ylmethylidene]-N,N-dimethylhydrazine]	0.7	1.1	–
CN(C)N=C(c1ccccc1OCc1cccc(Cl)c1)n1ccnc1 [Compound No. 40, N′-[1-[2-(3-chlorobenzyloxy)phenyl]-1-imidazol-1-ylmethylidene]-N,N-dimethylhydrazine]	0.7	1.0	–
CCc1ccc(COc2ccccc2C(=NN(C)C)n2ccnc2)cc1 [Compound No. 48, N′-[1-[2-(4-ethylbenzyloxy)phenyl]-1-imidazol-1-ylmethylidene]-N,N-dimethylhydrazine]	0.5	1.0	–
CN(C)N=C(c1ccccc1OCCc1ccccc1)n1ccnc1 [Compound No. 56, N′-[1-imidazol-1-yl-1-(2-phenethoxyphenyl)methylidene]-N,N-dimethylhydrazine]	0.7	1.2	–
CN(C)N=C(c1ccccc1OCCc1ccc(F)cc1)n1ccnc1 [Compound No. 57, N′-[1-[2-[2-(4-fluorophenyl)ethoxy]phenyl]-1-imidazol-1-ylmethylidene]-N,N-dimethylhydrazine]	0.8	1.8	–
COc1ccc(CCOc2ccccc2C(=NN(C)C)n2ccnc2)cc1 [Compound No. 58, N′-[1-imidazol-1-yl-1-[2-[2-(4-methoxyphenyl)ethoxy]phenyl]methylidene]-N,N-dimethylhydrazine]	0.9	1.0	–
CN(C)N=C(c1ccccc1OCC1COc2ccccc2O1)n1ccnc1 (stereo not shown) [Compound No. 73, N′-[1-[2-(2,3-dihydrobenzo[1,4]dioxin-2-ylmethoxy)phenyl]-1-imidazol-1-ylmethylidene]-N,N-dimethylhydrazine]	0.7	1.1	–
CN(C)N=C(c1ccccc1SCCc1ccccc1)n1ccnc1 [Compound No. 84, N′-[1-imidazol-1-yl-1-(2-phenethylthiophenyl)methylidene]-N,N-dimethylhydrazine]	0.9	1.4	–
CN(C)N=C(c1cccn1Cc1ccccc1)n1ccnc1 [Compound No. 105, N′-[1-(1-benzylpyrrol-2-yl)-1-imidazol-1-ylmethylidene]-N,N-dimethylhydrazine]	–	–	MIC [1]: 0.2 µg/mL (≈ 0.682 µM); MIC [2]: 0.2 µg/mL (≈ 0.682 µM); MIC [3, 7]: 0.39 µg/mL (≈ 1.33 µM); MIC [3, 8]: 0.78 µg/mL; MIC [4]: 25 µg/mL (≈ 85.2 µM); MIC [5]: 0.2 µg/mL (≈ 0.682 µM); MIC [6]: 0.39 µg/mL (≈ 1.33 µM)
CN(C)N=C(c1cccn1CCCOc1ccccc1)n1ccnc1 [Compound No. 108, N′-[1-imidazol-1-yl-1-[1-(3-phenoxypropyl)pyrrol-2-yl]methylidene]-N,N-dimethylhydrazine]	0.9	1.4	–
CCN(C)N=C(c1ccccc1OCc1ccc(F)cc1)n1ccnc1 [Compound No. 113, N-ethyl-N′-[1-[2-(4-fluorobenzyloxy)phenyl]-1-imidazol-1-ylmethylidene]-N-methylhydrazine]	0.6	1.7	–
CCC(C)n1ncn(-c2ccc(N3CCN(c4ccc(OCC5COC(Cn6cncn6)(c6ccc(Cl)cc6Cl)O5)cc4)CC3)cc2)c1=O (stereo not shown) [ITCZ, itraconazole, reference compound]	–	–	MIC [1]: 0.1 µg/mL (≈ 0.142 µM); MIC [2]: 0.05 µg/mL (≈ 0.0709 µM); MIC [3, 7]: 0.05 µg/mL (≈ 0.0709 µM); MIC [3, 8]: 25 µg/mL; MIC [4]: 0.05 µg/mL (≈ 0.0709 µM); MIC [5]: 0.1 µg/mL (≈ 0.142 µM); MIC [6]: 0.2 µg/mL (≈ 0.283 µM)
